Values after ≈ are worked out from the molar mass of the structure shown. Where two headings read alike, the source gives them in different places.
Columns and labels:
[1] = biological target: histone deacetylase (HeLa nuclear extracts); experiment: In vitro assay for inhibition of histone deacetylase with fluorescent-labelled substrate; assay type: biochemical; details: Fluor de Lys substrate
Text: The in vitro assay for inhibition of histone deacetylase (see example C. 1) measures the inhibition of HDAC enzymatic activity obtained with the compounds of formula (I).
The HDAC Fluorescent Activity Assay/Drug Discovery Kit of Biomol (cat.No: AK-500-0001) was used. The HDAC Fluorescent Activity Assay is based on the Fluor de Lys (Fluorogenic Histone deAcetylase Lysyl) substrate and developer combination. The Fluor de Lys substrate, comprises an acetylated lysine side chain. Deacetylation of the substrate sensitizes the substrate so that, in the second step, treatment with the Fluor de Lys developer produces a fluorophore.
HeLa nuclear extracts (supplier: Biomol) were incubated at 60 μg/ml with 75 μM of substrate. The Fluor de Lys substrate was added in a buffer containing 25 mM Tris, 137 mM NaCl, 2.7 mM KCl and 1 mM MgCl2.6H2O at pH 7.4. After 30 min, 1 volume of the developer was added. The fluorophore was excited with 355 nm light and the emitted light (450 nm) was be detected on a fluorometric plate reader.
For each experiment, controls (containing HeLa nuclear extract and buffer), a blank incubation (containing buffer but no HeLa nuclear extract) and samples (containing compound dissolved in DMSO and further diluted in buffer and HeLa nuclear extract) were run in parallel. In first instance, compounds were tested at a concentration of 10^−5M. […] All sample were tested 4 times. In each test the blank value was substracted from both the control and the sample values. The control sample represented 100% of substrate deactylation. For each sample the fluorescence was expressed as a percentage of the mean value of the controls. […] Herein the effects of test compounds are expressed as pIC50 (the negative log value of the IC50-value) (see Table F-2).

[2] = tested on: A2780 ovarian carcinoma cells; experiment: Antiproliferative activity on A2780 cells (MTT); assay type: cell-based; details: Homo sapiens, 96 h, four days of incubation, read-out: Cellular activity pIC50 C.2 (converted)
Method: Cellular activity of the compounds of formula (I) was determined on A2780 tumour cells using a […] assay for cell toxicity or survival (Mosmann Tim, Journal of Immunological Methods 65: 55-63, 1983)(see example C.2).
All compounds tested were dissolved in DMSO and further dilutions were made in culture medium. Final DMSO concentrations never exceeded 0.1% (v/v) in cell proliferation assays. Controls contained A2780 cells and DMSO without compound and blanks contained DMSO but no cells. MTT was dissolved at 5 mg/ml in PBS. A glycine buffer comprised of 0.1 M glycine and 0.1 M NaCl buffered to pH 10.5 with NaOH (1 N) was prepared (all reagents were from Merck).
The human A2780 ovarian carcinoma cells (a kind gift from Dr. T. C. Hamilton [Fox Chase Cancer Centre, Pennsylvania, USA]) were cultured in RPMI 1640 medium supplemented with 2 mM L-glutamine, 50 μg/ml gentamicin and 10% fetal calf serum. Cells were routinely kept as monolayer cultures at 37° C. in a humidified 5% CO2 atmosphere. Cells were passaged once a week using a trypsin/EDTA solution at a split ratio of 1:40. All media and supplements were obtained from Life Technologies. Cells were free of mycoplasma contamination as determined using the Gen-Probe Mycoplasma Tissue Culture kit (supplier: BioMérieux).
Cells were seeded in NUNC™ 96-well culture plates (Supplier: Life Technologies) and allowed to adhere to the plastic overnight. Densities used for plating were 1500 cells per well in a total volume of 200 μl medium. After cell adhesion to the plates, medium was changed and drugs and/or solvents were added to a final volume of 200 μL Following four days of incubation, medium was replaced by 200 μl fresh medium and cell density and viability was assessed using an MTT-based assay. […] For each sample, the mean value for cell growth (in absorbance units) was expressed as a percentage of the mean value for cell growth of the control. […] Herein the effects of test compounds are expressed as pIC50 (the negative log value of the IC50-value) (see Table F-2).

[3] = Solubility at pH 2.3 (chemiluminescent nitrogen detector); assay type: physicochemical; details: pH 2.3, aqueous buffer; read-out: Solubility C.3.b. pH = 2.3
Method: The solubility of a compound measures the ability of a compound to stay in solution. In a first method the ability of a compound to stay in aqueous solution upon dilution (see example C.3.a) is measured. DMSO-stock solutions are diluted with a single aqueous buffer solvent in different consecutive steps. In this method, mixtures are then scanned in the BD Gentest Solubility Scanner for the occurrence of precipitation. In a second method the solubility of a compound at different pH's can be measured with the use of a Chemiluminescent Nitrogen Detector (see example C.3.b).
The solubility of a compound, at pH 2.3, can also be measured with the use of a chemiluminescent nitrogen detector (see Table F-2).

Row | SMILES | Enzymatic activity pIC50 C.1 [1] | IC50 [2] | other results
1 | COc1cc(N)c(Cl)cc1C(=O)NC1CCN(CCCOc2ccc(F)cc2)CC1OC (centres unmarked) [Cisapride] |  |  | % metabolism (human, 15 min, 5 μM): 45%
2 | CCCn1cc(CCNCC2CCN(c3ncc(C(=O)Nc4ccccc4N)cn3)CC2)c2cc(Cl)ccc21 [Compound 1] | <6 | 3160 nM | 
3 | Cn1cc(CNCC2CCN(c3ncc(C(=O)Nc4ccccc4N)cn3)CC2)c2ccccc21 [Compound 2] | 4.8 | 100 nM | solubility [3]: 3700 µg/mL (≈ 7.88 mM)
4 | CCCn1cc(CNCC2CCN(c3ncc(C(=O)Nc4ccccc4N)cn3)CC2)c2cc(F)ccc21 [Compound 3] | <6 | 1580 nM | 
5 | Nc1ccccc1NC(=O)c1cnc(N2CCC(CNCCc3c[nH]c4ccccc34)CC2)nc1 [Compound 4] | <6 |  | 
6 | CS(=O)(=O)N(CCc1c[nH]c2ccccc12)CC1CCN(c2ncc(C(=O)Nc3ccccc3N)cn2)CC1 [Compound 5] | <6 |  | 
7 | CCCO [propanol] |  |  | % metabolism (15 min incubation with microsomes, compound 5 μM): 25%

— patent US8119650B2, “Aminophenyl derivatives as novel inhibitors of histone deacetylase” (Janssen Pharmaceutica N.V., priority 2006, dated 2012)
